IC50 and Ki data for 20 compounds are collected here from US9580430B2, “9H-pyrimido[4,5-B]indoles and related analogs as BET bromodomain inhibitors” (THE REGENTS OF THE UNIVERSITY OF MICHIGAN, priority 2014, dated 2017).

Where two headings read alike, the source gives them in different places.

In one test the target is T1, recombinant BRD4 BD1 (Homo sapiens, UniProt O60885).
T1 construct: for recombinant BRD4 BD1 and BRD4 BD2 proteins
In words: Competitive fluorescence-polarization (FP) binding assay, BRD4 BD1. For IC50 (nM) BRD4 BD1: probe 1.5 nM. Conditions: for Ki: read-out: Binding affinities (FP) BRD4BD1 Ki. As to the method: (§1) Fluorescence Polarization (FP) competitive binding studies were carried out using a FAM labeled fluorescent probe (ZBA248 or BRD-1F) to determine binding affinities of representative Compounds of the Disclosure for recombinant BRD4 BD1 and BRD4 BD2 proteins. For example, equilibrium dissociation constants (Kd) values of ZBA248 to these […] proteins were determined from protein saturation experiments by monitoring the total fluorescence polarization of mixtures composed with the fluorescent probe at a fixed concentration and proteins with increasing concentrations up to full saturation. Serial dilutions of testing protein were mixed with ZBA248 to a final volume of 200 μl in the assay buffer. […] Plates were incubated at room temperature for 30 minutes with gentle shaking to assure equilibrium. […] Kd values of ZBA248 were calculated by fitting the sigmoidal dose-dependent FP increases as a function of protein concentrations using Graphpad Prism 6.0 software (Graphpad Software, San Diego, Calif.).
(§2) The IC50 and Ki values of representative Compounds of the Disclosure were determined in a competitive binding experiment as described above. Mixtures of 10 μl of the tested compounds in assay buffer with 40% Ethylene Glycol and 190 μl of preincubated protein/probe complex solution in the assay buffer (100 mM potassium phosphate, pH 6.5, 0.01% Triton X-100) were added into assay plates which were incubated at room temperature for 30 minutes with gentle shaking. Final concentrations of proteins were 10 and 6 nM in assays for BD1 and BD2 of BRD4, respectively. […] FP values were measured as described above. IC50 values were determined by nonlinear regression fitting of the competition curves.

The target of the next test is T2, recombinant BRD4 BD2 (Homo sapiens, UniProt O60885).
T2 construct: for recombinant BRD4 BD1 and BRD4 BD2 proteins
The test is described as follows: Competitive fluorescence-polarization (FP) binding assay, BRD4 BD2. For IC50 (nM) BRD4 BD2: probe 1.5 nM. Conditions: for Ki: read-out: Binding affinities (FP) BRD4BD2 Ki. As to the method: as §1, §2

Another test concerns MDA-MB-436. The test is described as follows: Cell growth inhibition, MDA-MB-436 breast cancer cells (WST-8). The format is cell-based. Conditions: Homo sapiens, 96 h; MDA-MB-436 cells, 4 days; read-out: Cellular data MDA-MB-436 IC50. As to the method: All the breast cancer cell lines were obtained from the ATCC. Cell viability was determined using the WST-8 (2-(2-methoxy-4-nitrophenyl)-3-(4-nitrophenyl)-5-(2,4-disulfophenyl)-2H-tetrazolium, monosodium salt) based Cell Counting-8 Kit (Dojindo Molecular Technologies, Inc., Rockville, Md.) according to the manufacture's instruction. […] The absorbance was measured at 450 nm using a SPECTRAmax PLUS plate reader (Molecular Devices, Sunnyvale, Calif.). The IC50 was calculated using the GraphPad Prism 5 software.
On the technique in general: Tetrazolium assays rely on reduction of a dye to a coloured formazan, in cell work by metabolically active cells.

Setting [1] is: competitive FP assay, protein 10 nM, probe […], read-out: IC50 (nM) BRD4 BD1.
[2] abbreviates: competitive FP assay, protein 6 nM, probe […], read-out: IC50 (nM) BRD4 BD2.
The mark [3] stands for this setting: FP competitive binding, BRD4 BD1, read-out: Binding affinities (FP) BRD4BD1 IC50.
The mark [4] stands for this setting: FP competitive binding, BRD4 BD1.
Setting [5] is: FP competitive binding, BRD4 BD2, read-out: Binding affinities (FP) BRD4BD2 IC50.
Setting [6] is: FP competitive binding, BRD4 BD2.

Broadly, the IC50 is the concentration that inhibits the measured activity by half. As for `COc1cc2c(cc1-c1c(C)noc1C)[nH]c1nc(C)nc(Sc3ccccc3C(C)C)c12` [Cpd. No. 25, 4-(4-((2-isopropylphenyl)thio)-6-methoxy-2-methyl-9H-pyrimido[4,5-b]indol-7-yl)-3,5-dimethylisoxazole], the half-inhibitory concentration (IC50) on recombinant BRD4 BD1 (setting [1]) and at recombinant BRD4 BD2 (setting [2]) was over 1000 nM in each case.

As for `COc1cc2c(cc1-c1c(C)noc1C)[nH]c1nc(C)nc(Sc3c[nH]c4ccccc34)c12` [Cpd. No. 26, 4-(4-((1H-indol-3-yl)thio)-6-methoxy-2-methyl-9H-pyrimido[4,5-b]indol-7-yl)-3,5-dimethylisoxazole], the half-maximal inhibitory concentration (IC50) on recombinant BRD4 BD1 (setting [1]) and at recombinant BRD4 BD2 (setting [2]) was over 1000 nM in each case.

In the case of `COc1cc2c(cc1-c1c(C)noc1C)[nH]c1nc(C)nc(Sc3cccc(C(C)(C)C)c3)c12` [Cpd. No. 27, 4-(4-((3-(tert-butyl)phenyl)thio)-6-methoxy-2-methyl-9H-pyrimido[4,5-b]indol-7-yl)-3,5-dimethylisoxazole], the 50% inhibitory concentration (IC50) on recombinant BRD4 BD1 (setting [1]) and on recombinant BRD4 BD2 (setting [2]) was over 1000 nM in each case.

With `COc1cc2c(cc1-c1c(C)noc1C)[nH]c1nc(C)nc(Oc3cccc(Cl)c3)c12` [Cpd. No. 95, 4-(4-(3-chlorophenoxy)-6-methoxy-2-methyl-9H-pyrimido[4,5-b]indol-7-yl)-3,5-dimethylisoxazole], the half-maximal inhibitory concentration (IC50) on recombinant BRD4 BD1 (setting [1]) and on recombinant BRD4 BD2 (setting [2]) was over 1000 nM throughout.

Consider `COc1cc2c(cc1-c1c(C)noc1C)[nH]c1nc(C)nc(Oc3cccnc3)c12` [Cpd. No. 96, 4-(6-methoxy-2-methyl-4-(pyridin-3-yloxy)-9H-pyrimido[4,5-b]indol-7-yl)-3,5-dimethylisoxazole], for which the IC50 at recombinant BRD4 BD1 (setting [1]) worked out at 864 nM; on recombinant BRD4 BD2 (setting [2]), 379 nM.

On to `COc1cc2c(cc1-c1c(C)noc1C)[nH]c1nc(C)nc(Nc3cc(C4CC4)nn3CCN(C)C)c12` [Cpd. No. 160, N-(3-Cyclopropyl-1-(2-(dimethylamino)ethyl)-1H-pyrazol-5-yl)-7-(3,5-dimethylisoxazol-4-yl)-6-methoxy-2-methyl-9H-pyrimido[4,5-b]indol-4-amine], for which the IC50 on recombinant BRD4 BD1 (setting [1]) amounted to 14.1 nM.

On to `COc1cc2c(cc1-c1c(C)noc1C)[nH]c1nc(C)nc(Nc3cc(C4CC4)nn3C3CNC3)c12` [Cpd. No. 163, N-(1-(Azetidin-3-yl)-3-cyclopropyl-1H-pyrazol-5-yl)-7-(3,5-dimethylisoxazol-4-yl)-6-methoxy-2-methyl-9H-pyrimido[4,5-b]indol-4-amine], for which the half-inhibitory concentration (IC50) at recombinant BRD4 BD1 (setting [1]) came to 8.8 nM.

As for `COc1cc2c(cc1-c1c(C)noc1C)[nH]c1nc(N)nc(Nc3cc(C4CC4)nn3C)c12` [Cpd. No. 206, N4-(3-cyclopropyl-1-methyl-1H-pyrazol-5-yl)-7-(3,5-dimethylisoxazol-4-yl)-6-methoxy-9H-pyrimido[4,5-b]indole-2,4-diamine], the IC50 on recombinant BRD4 BD1 (setting [1]) is 5.6 nM.

With `COCc1nc(Nc2cc(C3CC3)nn2C)c2c(n1)[nH]c1cc(-c3c(C)noc3C)c(OC)cc12` [Cpd. No. 207, N-(3-cyclopropyl-1-methyl-1H-pyrazol-5-yl)-7-(3,5-dimethylisoxazol-4-yl)-6-methoxy-2-(methoxymethyl)-9H-pyrimido[4,5-b]indol-4-amine], the figures for the 50% inhibitory concentration (IC50) at recombinant BRD4 BD1 (setting [1]) and on recombinant BRD4 BD2 (setting [2]) were 2.9 nM and 1.3 nM, respectively.

Take `COc1cc2c(cc1-c1c(C)noc1C)[nH]c1nc(C)nc(Nc3ccnc(C)c3)c12` [Cpd. No. 248, 7-(3,5-dimethylisoxazol-4-yl)-6-methoxy-2-methyl-N-(2-methylpyridin-4-yl)-9H-pyrimido[4,5-b]indol-4-amine]: the half-inhibitory concentration (IC50) came to 70 nM on recombinant BRD4 BD1 (setting [1]) and 79 nM on recombinant BRD4 BD2 (setting [2]).

Take `COCCn1nc(C2CC2)cc1Nc1nc(C)nc2[nH]c3cc(-c4c(C)noc4C)c(OC)cc3c12` [Cpd. No. 266, N-(3-Cyclopropyl-1-(2-methoxyethyl)-1H-pyrazol-5-yl)-7-(3,5-dimethylisoxazol-4-yl)-6-methoxy-2-methyl-9H-pyrimido[4,5-b]indol-4-amine]: the figures for the IC50 on recombinant BRD4 BD1 (setting [1]) and on recombinant BRD4 BD2 (setting [2]) were 10.3 nM and 3.1 nM, respectively.

By Ki is commonly meant the dissociation constant of the complex between target and ligand, obtained from inhibition or displacement. As for `CCn1nc(C2CC2)cc1Nc1nccc2[nH]c3cc(-c4c(C)noc4C)c(OC)cc3c12` [Cpd. No. 285, N-(3-cyclopropyl-1-ethyl-1H-pyrazol-5-yl)-7-(3,5-dimethylisoxazol-4-yl)-8-methoxy-5H-pyrido[4,3-b]indol-1-amine], the concentration for half-maximal inhibition (IC50) at recombinant BRD4 BD1 (setting [3]) is 18.9 nM; on recombinant BRD4 BD2 (setting [5]), 9.8 nM. The Ki on recombinant BRD4 BD1 (setting [4]) was determined as 0.0037 µM; on recombinant BRD4 BD2 (setting [6]), 0.0021 µM.

On to `COc1cc2c(cc1-c1c(C)noc1C)[nH]c1ccnc(Nc3c4c(nn3C(C)C)CCC4)c12` [Cpd. No. 286, 7-(3,5-dimethylisoxazol-4-yl)-N-(2-isopropyl-2,4,5,6-tetrahydrocyclopenta[c]pyrazol-3-yl)-8-methoxy-5H-pyrido[4,3-b]indol-1-amine], for which the IC50 at recombinant BRD4 BD1 (setting [3]) amounted to 28.7 nM; at recombinant BRD4 BD2 (setting [5]), 18.5 nM. Besides, the results for the inhibition constant Ki on recombinant BRD4 BD1 (setting [4]) and at recombinant BRD4 BD2 (setting [6]) were 0.0051 µM and 0.0046 µM, respectively.

As to `COc1cc2c(nc1-c1c(C)noc1C)[nH]c1nc(C)nc(Nc3cc(C4CC4)nn3C)c12` [Cpd. No. 304], the IC50 at recombinant BRD4 BD1 (setting [3]) was found to be 63 nM; at recombinant BRD4 BD2 (setting [5]) it was 318 nM. The results for the Ki on recombinant BRD4 BD1 (setting [4]) and at recombinant BRD4 BD2 (setting [6]) were 0.015 µM and 0.094 µM, respectively.

`COc1nc2c(cc1-c1c(C)noc1C)[nH]c1nc(C)nc(Nc3cc(C)nn3C(C)(C)C)c12` [Cpd. No. 310, N-(1-(tert-butyl)-3-methyl-1H-pyrazol-5-yl)-7-(3,5-dimethylisoxazol-4-yl)-6-methoxy-2-methyl-9H-pyrido[2′,3′:4,5]pyrrolo[2,3-d] pyrimidin-4-amine]: the IC50 was determined as 1.28 µM in the test on MDA-MB-436, 378 nM on recombinant BRD4 BD1 (setting [3]) and 313 nM on recombinant BRD4 BD2 (setting [5]). The Ki was determined as 0.143 µM on recombinant BRD4 BD1 (setting [4]) and 0.113 µM on recombinant BRD4 BD2 (setting [6]).

Take `COc1cc2c3c(N(C)c4cc(C5CC5)nn4C4CN(C)C4)nc(C)nc3n(C)c2cc1-c1c(C)noc1C` [compound 258, N-(3-Cyclopropyl-1-(1-methylazetidin-3-yl)-1H-pyrazol-5-yl)-7-(3,5-dimethyl-isoxazol-4-yl)-6-methoxy-N,2,9-trimethyl-9H-pyrimido[4,5-b]indol-4-amine]: the 50% inhibitory concentration (IC50) was 8.1 nM at recombinant BRD4 BD1 (setting [1]) and 2.8 nM at recombinant BRD4 BD2 (setting [2]).

Turning to `COc1nc2c(cc1-c1c(C)noc1C)[nH]c1nc(C)nc(Nc3nn(C)c4ncccc34)c12` [compound 311, 7-(3,5-dimethylisoxazol-4-yl)-6-methoxy-2-methyl-N-(1-methyl-1H-pyrazolo[3,4-b]pyridin-3-yl)-9H-pyrido[2′,3′:4,5]pyrrolo [2,3-d]pyrimidin-4-amine], the IC50 in the test with MDA-MB-436 is 1.1 µM; on recombinant BRD4 BD1 (setting [3]) it was 1090 nM; on recombinant BRD4 BD2 (setting [5]) it was over 1000 nM. At recombinant BRD4 BD1 (setting [4]), the inhibition constant (Ki) was 0.602 µM.

Take `COc1nc2c(cc1-c1c(C)noc1C)[nH]c1nc(C)nc(Nc3c(C)cnn3C(C)C)c12` [compound 312, 7-(3,5-dimethylisoxazol-4-yl)-N-(1-isopropyl-4-methyl-1H-pyrazol-5-yl)-6-methoxy-2-methyl-9H-pyrido[2′,3′:4,5]pyrrolo[2,3-d] pyrimidin-4-amine]: the half-inhibitory concentration (IC50) in the test on MDA-MB-436 turned out to be 1.05 µM; on recombinant BRD4 BD1 (setting [3]), 378 nM; at recombinant BRD4 BD2 (setting [5]) it was 346 nM. The inhibition constant Ki on recombinant BRD4 BD1 (setting [4]) came to 0.14 µM; at recombinant BRD4 BD2 (setting [6]), 0.101 µM.

With `COc1nc2c(cc1-c1c(C)noc1C)[nH]c1nc(C)nc(Nc3cccc(C)c3)c12` [compound 313, 7-(3,5-dimethylisoxazol-4-yl)-6-methoxy-2-methyl-N-(m-tolyl)-9H-pyrido[2′,3′:4,5]pyrrolo[2,3-d] pyrimidin-4-amine], the results for the 50% inhibitory concentration (IC50) in the test with MDA-MB-436, on recombinant BRD4 BD1 (setting [3]) and on recombinant BRD4 BD2 (setting [5]) were over 2 µM, 4070 nM and 4070 nM, respectively. For the same compound, the Ki was 1.2 µM at recombinant BRD4 BD1 (setting [4]) and 1.14 µM on recombinant BRD4 BD2 (setting [6]).

On to `COc1nc2c(cc1-c1c(C)noc1C)[nH]c1nc(C)nc(Nc3cc(C(C)(C)C)nn3C)c12` [compound 314, N-(3-(tert-butyl)-1-methyl-1H-pyrazol-5-yl)-7-(3,5-dimethylisoxazol-4-yl)-6-methoxy-2-methyl-9H-pyrido[2′,3′:4,5]pyrrolo [2,3-d]pyrimidin-4-amine], for which the IC50 was over 2 µM in the test with MDA-MB-436, 457 nM on recombinant BRD4 BD1 (setting [3]) and 986 nM at recombinant BRD4 BD2 (setting [5]). Also, the values for the inhibitory constant (Ki) on recombinant BRD4 BD1 (setting [4]) and at recombinant BRD4 BD2 (setting [6]) were 0.146 µM and 0.209 µM, respectively.
